Patent US5348965A, “N-substituted azaheterocyclic carboxylic acids” (Novo Nordisk A/S, priority 1991, dated 1994)
Structures can show the parent of a compound that is named as a salt.

Legend:
GABA uptake [1] = details: oral; Yunger et al., J. Pharm. Exp. Ther. 1984, 228, 109; cited from earlier work
[^3 H]-GABA uptake = in vitro inhibition of [^3 H]-GABA uptake (method of Fjalland); format: biochemical; details: Male wistar rat cortical tissue homogenate; tris HCl buffer pH 7.5; 60 minutes at 30° C.
Method: Values for in vitro inhibition of [^3 H]-GABA uptake for the invention compounds were assessed essentially by the method of Fjalland (Acta Pharmacol. Toxicol. 1978, 42, 73-76). Male wistar rat cortical tissue was gently homogenized by hand using a glass/PTFE homogenizer in 10 volumes of 0.32 M sucrose. Incubation was performed in a 40 mM tris HCl buffer (pH 7.5 at 30° C.) containing […], 4 mM MgSO4, […] and 10 mM glucose, for 60 minutes at 30° C. Values for inhibition of GABA uptake for some representative compounds are recorded in Table I.

GABA uptake [2] = details: from the synaptic cleft into presynaptic nerve terminals and glial cells; cited from earlier work

Row | IC50 ([^3 H]-GABA uptake) [nM] | Compound | orally active inhibition of GABA uptake (GABA uptake [1]) | other results
1 |  | O=C(O)CC1CCN(CCC=C(c2ccccc2)c2ccccc2)C1 (stereo not drawn) [SK&F 100561, N-(4,4-diphenyl-3-buten-1-yl)-homo-β-proline] | orally active inhibitors of GABA uptake | 
2 | 1130 | O=C(O)[C@@H]1CCCN(CCON=C2c3ccccc3CCc3ccccc32)C1 [Example 7, (R)-N-(2-(((10,11-Dihydro-5H-dibenzo[a,d]cyclohepten-5-ylidene)amino)oxy)ethyl)-3-piperidinecarboxylic acid hydrochloride] |  | 
3 | 222 | O=C(O)[C@@H]1CCCN(CCOCCN2c3ccccc3CCc3ccccc32)C1 [Example 1, (R)-N-(2-(2-(10,11-Dihydro-5H-dibenz[b,f]azepin-5-yl)ethoxy)ethyl)-3-piperidinecarboxylic acid hydrochloride] |  | 
4 |  | O=C(O)C1CCCNC1 (centres unmarked) [3-piperidinecarboxylic acid] |  | inhibition of GABA uptake (GABA uptake [2]): potent inhibitor of GABA uptake
5 |  | O=C(O)C1=CCCN(CCC=C(c2ccccc2)c2ccccc2)C1 [SK&F 100330A, N-(4,4-diphenyl-3-buten-1-yl)guvacine] | orally active inhibitors of GABA uptake | 
6 | 900 | O=C(O)[C@@H]1CCCN(CCCOCC=C2c3ccccc3CCc3ccccc32)C1 [Example 5, (R)-N-(3-(2-(10,11-Dihydro-5H-dibenzo[a,d]cyclohepten-5-ylidene)ethoxy)-1-propyl)-3-piperidinecarboxylic acid hydrochloride] |  | 
7 | 306 | O=C(O)[C@@H]1CCCN(CCOCCN2c3ccccc3Sc3ccccc32)C1 [Example 2a, (R)-N-(2-(2-(10H-Phenothiazin-10-yl)ethoxy)ethyl)-3-piperidinecarboxylic acid hydrochloride] |  | 
8 |  | O=C(O)C1CCCN(CCC=C(c2ccccc2)c2cccs2)C1 (centres unmarked) [SK&F 100604J, N-(4-phenyl-4-(2-thienyl)-3-buten-1-yl)nipecotic acid] | orally active inhibitors of GABA uptake | 
9 | 754 | O=C(O)[C@@H]1CCCN(CCOCC=C2c3ccccc3CCc3ccccc32)C1 [Example 3, (R)-N-(2-(2-(10,11-Dihydro-5H-dibenzo[a,d]cyclohepten-5-ylidene)ethoxy)ethyl)-3-piperidinecarboxylic acid hydrochloride] |  | 
10 |  | O=C(O)C1CCCN(CCC=C(c2ccccc2)c2ccccc2)C1 (centres unmarked) [SK&F 89976A, N-(4,4-diphenyl-3-buten-1-yl)nipecotic acid] | orally active inhibitors of GABA uptake | 
11 | 119 | O=C(O)[C@@H]1CCCN(CCOCCN2c3ccccc3Sc3ccc(Cl)cc32)C1 [Example 2c, (R)-N-(2-(2-(2-Chloro-10H-phenothiazin-10-yl)ethoxy)ethyl)-3-piperidinecarboxylic acid hydrochloride] |  | 
